According to patent publication US9856216B2, “Compounds as TNIK, IKKε and TBK1 inhibitors and pharmaceutical composition comprising same” (GREEN CROSS CORPORATION, priority 2015, dated 2018):
Where a name gives a salt, the structure may show the parent alone.

What follows are molecules tested against T1, TNIK (Homo sapiens, UniProt Q9UKE5) (assay: ADP-Glo Kinase Assay, inhibition activity on TNIK). Conditions: read-out: TNIK.
T1 construct: purchased Promega V4158
Format: biochemical
Description: The inhibition activities on TNIK, IKKε and TBK1 were measured by a luminometer, TNIK/IKKε/TBK1 Kinase Enzyme System (Promega, Ca# V4158; Invitrogen, PR8031B, Promega, Ca# V3991) and ADP-Glo Kinase Assay using ADP-Glo™ Kinase Analysis Kit (Promega, Ca# V9101) and a kinase reaction buffer [40 mM Tris(pH 7.5), 20 mM MgCl2, 0.1 mg/mL BSA] in accordance with the manufacturer's protocol.

T1 sequence (Q9UKE5 1-367 limits assumed): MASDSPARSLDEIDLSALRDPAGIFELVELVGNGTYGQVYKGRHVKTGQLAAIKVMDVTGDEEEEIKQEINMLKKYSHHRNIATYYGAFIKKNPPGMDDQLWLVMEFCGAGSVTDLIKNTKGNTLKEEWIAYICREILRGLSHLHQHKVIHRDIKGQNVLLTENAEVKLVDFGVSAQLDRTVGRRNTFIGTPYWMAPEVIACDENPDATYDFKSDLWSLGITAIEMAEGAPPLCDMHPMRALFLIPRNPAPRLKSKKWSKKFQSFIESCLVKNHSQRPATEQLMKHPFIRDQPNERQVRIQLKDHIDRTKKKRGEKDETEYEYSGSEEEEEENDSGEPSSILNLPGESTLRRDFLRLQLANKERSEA

Row | SMILES | IC50 [µM]
1 | COc1cccc(Nc2ccc(NC(=O)c3ccc(NCCN4CCCCC4)cc3)c3c2CNC3=O)c1 [Example 446, N-(7-((3-methoxyphenyl)amino)-3-oxoisoindolin-4-yl)-4-((2-(piperidin-1-yl)ethyl)amino)benzamide] | 0.63
2 | COc1cccc(Nc2ccc(NC(=O)c3ccc(NCCCN4CCCC4)cc3)c3c2CNC3=O)c1 [Example 447, N-(7-((3-methoxyphenyl)amino)-3-oxoisoindolin-4-yl)-4-((3-(pyrrolidin-1-yl)propyl)amino)benzamide] | 0.55
3 | COc1cccc(Nc2ccc(NC(=O)c3ccc(NCCCN4CCCCC4)cc3)c3c2CNC3=O)c1 [Example 448] | 0.62
4 | Cc1cccc(Nc2ccc(NC(=O)c3ccc(NCCN4CCCC4)cc3)c3c2CNC3=O)c1 [Example 449, N-(3-oxo-7-(m-tolylamino)isoindolin-4-yl)-4-((2-(pyrrolidin-1-yl)ethyl)amino)benzamide] | 0.59
5 | Cc1cccc(Nc2ccc(NC(=O)c3ccc(NCCN4CCCCC4)cc3)c3c2CNC3=O)c1 [Example 450, N-(3-oxo-7-(m-tolylamino)isoindolin-4-yl)-4-((2-(piperidin-1-yl)ethyl)amino)benzamide] | 0.58
6 | Cc1cccc(Nc2ccc(NC(=O)c3ccc(NCCCN4CCCC4)cc3)c3c2CNC3=O)c1 [Example 451, N-(3-oxo-7-(m-tolylamino)isoindolin-4-yl)-4-((3-(pyrrolidin-1-yl)propyl)amino)benzamide] | 0.48
7 | Cc1cccc(Nc2ccc(NC(=O)c3ccc(NCCCN4CCCCC4)cc3)c3c2CNC3=O)c1 [Example 452, N-(3-oxo-7-(m-tolylamino)isoindolin-4-yl)-4-((3-(piperidin-1-yl)propyl)amino)benzamide] | 0.44
8 | O=C(Nc1ccc(Nc2ccccc2Cl)c2c1C(=O)NC2)c1ccc(NCCN2CCCC2)cc1 [Example 453, N-(7-((2-chlorophenyl)amino)-3-oxoisoindolin-4-yl)-4-((2-(pyrrolidin-1-yl)ethyl)amino)benzamide] | 0.51
9 | O=C(Nc1ccc(Nc2ccccc2Cl)c2c1C(=O)NC2)c1ccc(NCCN2CCCCC2)cc1 [Example 454, N-(7-((2-chlorophenyl)amino)-3-oxoisoindolin-4-yl)-4-((2-(piperidin-1-yl)ethyl)amino)benzamide] | 0.53
10 | O=C(Nc1ccc(Nc2cccc(Cl)c2)c2c1C(=O)NC2)c1ccc(NCCN2CCCC2)cc1 [Example 455, N-(7-((3-chlorophenyl)amino)-3-oxoisoindolin-4-yl)-4-((2-(pyrrolidin-1-yl)ethyl)amino)benzamide] | 0.2
11 | O=C(Nc1ccc(Nc2cccc(Cl)c2)c2c1C(=O)NC2)c1ccc(NCCN2CCCCC2)cc1 [Example 456, N-(7-((3-chlorophenyl)amino)-3-oxoisoindolin-4-yl)-4-((2-(piperidin-1-yl)ethyl)amino)benzamide] | 0.34
12 | O=C(Nc1ccc(Nc2cccc(Cl)c2)c2c1C(=O)NC2)c1ccc(NCCCN2CCCC2)cc1 [Example 457, N-(7-((3-chlorophenyl)amino)-3-oxoisoindolin-4-yl)-4-((3-(pyrrolidin-1-yl)propyl)amino)benzamide] | 0.15
13 | O=C(Nc1ccc(Nc2cccc(Cl)c2)c2c1C(=O)NC2)c1ccc(NCCCN2CCCCC2)cc1 [Example 458, N-(7-((3-chlorophenyl)amino)-3-oxoisoindolin-4-yl)-4-((3-(piperidin-1-yl)propyl)amino)benzamide] | 0.24
14 | O=C(Nc1ccc(Nc2ccccc2)c2c1C(=O)NC2)c1ccc(NCCCN2CCCC2=O)cc1 [Example 459, N-(3-oxo-7-(phenylamino)isoindolin-4-yl)-4-((3-(2-oxopyrrolidin-1-yl)propyl)amino)benzamide] | 0.21
15 | CN(C)CCCNc1ccc(C(=O)Nc2ccc(Nc3ccccc3)c3c2C(=O)NC3)cc1 [Example 460, 4-((3-(Dimethylamino)propyl)amino)-N-(3-oxo-7-(phenylamino)isoindolin-4-yl)benzamide] | 0.14
16 | O=C(Nc1ccc(Nc2ccccc2)c2c1C(=O)NC2)c1ccc(NCCCN2CCOCC2)cc1 [Example 461, 4-((3-Morpholinopropyl)amino)-N-(3-oxo-7-(phenylamino)isoindolin-4-yl)benzamide] | 0.38
17 | O=C(Nc1ccc(Nc2ccccc2)c2c1C(=O)NC2)c1ccc(NCCCN2CCCC2)cc1 [Example 462, N-(3-oxo-7-(phenylamino)isoindolin-4-yl)-4-((3-(pyrrolidin-1-yl)propyl)amino)benzamide] | 0.29
18 | CN1CCN(CCCNc2ccc(C(=O)Nc3ccc(Nc4ccccc4)c4c3C(=O)NC4)cc2)CC1 [Example 463, 4-((3-(4-Methylpiperazin-1-yl)propyl)amino)-N-(3-oxo-7-(phenylamino)isoindolin-4-yl)benzamide] | 0.37

Row | SMILES | IC50 [µM]
19 | O=C(Nc1ccc(Nc2ccccc2)c2c1C(=O)NC2)c1ccc(NCCCO)cc1 [Example 464, 4-((3-Hydroxypropyl)amino)-N-(3-oxo-7-(phenylamino)isoindolin-4-yl)benzamide] | 0.074
20 | O=C(Nc1ccc(Nc2cc(C(F)(F)F)cc(C(F)(F)F)c2)c2c1C(=O)NC2)c1ccc(NCCN2CCCC2)cc1 [Example 465, N-(7-((3,5-bis(trifluoromethyl)phenyl)amino)-3-oxoisoindolin-4-yl)-4-((2-(pyrrolidin-1-yl)ethyl)amino)benzamide] | > 20
21 | O=C(Nc1ccc(Nc2cc(C(F)(F)F)cc(C(F)(F)F)c2)c2c1C(=O)NC2)c1ccc(NCCCN2CCCC2)cc1 [Example 466, N-(7-((3,5-bis(trifluoromethyl)phenyl)amino)-3-oxoisoindolin-4-yl)-4-((3-(pyrrolidin-1-yl)propyl)amino)benzamide] | 14
22 | O=C(Nc1ccc(Nc2cc(C(F)(F)F)cc(C(F)(F)F)c2)c2c1C(=O)NC2)c1ccc(NCCN2CCCCC2)cc1 [Example 467, N-(7-((3,5-bis(trifluoromethyl)phenyl)amino)-3-oxoisoindolin-4-yl)-4-((2-(piperidin-1-yl)ethyl)amino)benzamide] | > 20
23 | O=C(Nc1ccc(Nc2cc(C(F)(F)F)cc(C(F)(F)F)c2)c2c1C(=O)NC2)c1ccc(NCCCN2CCCCC2)cc1 [Example 468, N-(7-((3,5-bis(trifluoromethyl)phenyl)amino)-3-oxoisoindolin-4-yl)-4-((3-(piperidin-1-yl)propyl)amino)benzamide] | 17.1
24 | Cc1cccc(Nc2ccc(NC(=O)c3ccc(NCCN4CCCC4)cc3)c3c2CNC3=O)c1C [Example 469, N-(7-((2,3-dimethylphenyl)amino)-3-oxoisoindolin-4-yl)-4-((2-(pyrrolidin-1-yl)ethyl)amino)benzamide] | 0.37
25 | Cc1cccc(Nc2ccc(NC(=O)c3ccc(NCCCN4CCCC4)cc3)c3c2CNC3=O)c1C [Example 470, N-(7-((2,3-dimethylphenyl)amino)-3-oxoisoindolin-4-yl)-4-((3-(pyrrolidin-1-yl)propyl)amino)benzamide] | 0.47
26 | Cc1cccc(Nc2ccc(NC(=O)c3ccc(NCCN4CCCCC4)cc3)c3c2CNC3=O)c1C [Example 471, N-(7-((2,3-dimethylphenyl)amino)-3-oxoisoindolin-4-yl)-4-((2-(piperidin-1-yl)ethyl)amino)benzamide] | 0.61
27 | Cc1cccc(Nc2ccc(NC(=O)c3ccc(NCCCN4CCCCC4)cc3)c3c2CNC3=O)c1C [Example 472, N-(7-((2,3-dimethylphenyl)amino)-3-oxoisoindolin-4-yl)-4-((3-(piperidin-1-yl)propyl)amino)benzamide] | 0.41
28 | Cc1ccccc1Nc1ccc(NC(=O)c2ccc(NCCN3CCCC3)cc2)c2c1CNC2=O [Example 473, N-(3-oxo-7-(o-tolylamino)isoindolin-4-yl)-4-((2-(pyrrolidin-1-yl)ethyl)amino)benzamide] | 0.43
29 | COc1ccccc1Nc1ccc(NC(=O)c2ccc(NCCN3CCCC3)cc2)c2c1CNC2=O [Example 474, N-(7-((2-methoxyphenyl)amino)-3-oxoisoindolin-4-yl)-4-((2-(pyrrolidin-1-yl)ethyl)amino)benzamide] | 0.44
30 | COc1ccccc1Nc1ccc(NC(=O)c2ccc(NCCCN3CCCC3)cc2)c2c1CNC2=O [Example 475, N-(7-((2-methoxyphenyl)amino)-3-oxoisoindolin-4-yl)-4-((3-(pyrrolidin-1-yl)propyl)amino)benzamide] | 0.47
31 | Cc1ccccc1Nc1ccc(NC(=O)c2ccc(NCCCN3CCCC3)cc2)c2c1CNC2=O [Example 476, N-(3-oxo-7-(o-tolylamino)isoindolin-4-yl)-4-((3-(pyrrolidin-1-yl)propyl)amino)benzamide] | 0.5
32 | COc1ccccc1Nc1ccc(NC(=O)c2ccc(NCCN3CCCCC3)cc2)c2c1CNC2=O [Example 477, N-(7-((2-methoxyphenyl)amino)-3-oxoisoindolin-4-yl)-4-((2-(piperidin-1-yl)ethyl)amino)benzamide] | 0.42
33 | COc1ccccc1Nc1ccc(NC(=O)c2ccc(NCCCN3CCCCC3)cc2)c2c1CNC2=O [Example 478, N-(7-((2-methoxyphenyl)amino)-3-oxoisoindolin-4-yl)-4-((3-(piperidin-1-yl)propyl)amino)benzamide] | 0.49
34 | O=C(Nc1ccc(Nc2ccccc2)c2c1C(=O)NC2)c1ccc(NCCCN2CCCCC2)cc1 [Example 479, N-(3-oxo-7-(phenylamino)isoindolin-4-yl)-4-((3-(piperidin-1-yl)propyl)amino)benzamide] | 0.11
35 | O=C(Nc1ccc(Nc2ccccc2)c2c1C(=O)NC2)c1ccc(NCCCN2CCCCC2)cc1 [Example 480, N-(3-oxo-7-(phenylamino)isoindolin-4-yl)-4-((3-(piperidin-1-yl)propyl)amino)benzamide hydrochloride] | 0.22
36 | NCCNc1ccc(C(=O)Nc2ccc(Nc3ccccc3)c3c2C(=O)NC3)cc1 [Example 481, 4-((2-Aminoethyl)amino)-N-(3-oxo-7-(phenylamino)isoindolin-4-yl)benzamide] | 0.2
